Literature values as cited in patent publication US20210308204A1, “FORMULATIONS CONTAINING LIPOPHILIC EXTRACTS OF SPICY EDIBLE PLANTS USEFUL IN CONTROLLING PAIN AND INFLAMMATION” (priority 2018, published 2021).

Conditions: in vivo, po

- tmax: about 15 minutes
Structure (SMILES): C/C1=C\CC/C(C)=C/C[C@](O)(C(C)C)CC/C(C)=C/CC1 [serratol]
